Measured values from the NIST ThermoML archive (doi:10.1016/j.jct.2015.11.010).
Numbers after ± are expanded uncertainties.

Assays:
[1] = Crystal; for mass density: 101.33 kPa, X-ray diffraction
[2] = molar enthalpy of vaporization or sublimation; settings: 298.15 K; Crystal; Static calorimetry
[3] = Molar enthalpy of transition or fusion; settings: Crystal; DSC
[4] = molar heat capacity at constant pressure; settings: 101.33 kPa, Crystal, Small sample (50 mg) DSC

| mass density ([1]; 150 K) [kg/m3] | mass density ([1]; 296 K) [kg/m3] | Triple point temperature ([1]; DSC) [K] | molar enthalpy [2] [kJ/mol] | Molar enthalpy of transition or fusion [3] [kJ/mol] | molar heat capacity at constant pressure ([4]; 298.15 K) [J/K/mol] | molar heat capacity at constant pressure ([4]; 303.15 K) [J/K/mol] | molar heat capacity at constant pressure ([4]; 308.15 K) [J/K/mol] | molar heat capacity at constant pressure ([4]; 313.15 K) [J/K/mol] | molar heat capacity at constant pressure ([4]; 318.15 K) [J/K/mol] | molar heat capacity at constant pressure ([4]; 323.15 K) [J/K/mol] | molar heat capacity at constant pressure ([4]; 328.15 K) [J/K/mol] | molar heat capacity at constant pressure ([4]; 333.15 K) [J/K/mol] | Structure (SMILES) |
| --- | --- | --- | --- | --- | --- | --- | --- | --- | --- | --- | --- | --- | --- |
| 1489.4 ± 7.3 |  |  |  |  |  |  |  |  |  |  |  |  | O.Sc1ncc[nH]1.Sc1ncc[nH]1 [2-mercaptoimidazole hemihydrate] |
|  | 1424.1 ± 7 | 503.5 ± 0.8 | 114 ± 1.4 | 17.5 ± 0.48 | 112 ± 7.7 | 112.4 ± 7.9 | 112.9 ± 7.9 | 112.6 ± 8.9 | 113.4 ± 8.6 | 114.3 ± 8.6 | 115.3 ± 8.6 | 116.5 ± 8.6 | Sc1ncc[nH]1 [2-mercaptoimidazole] |
